Inhibition data for 11 compounds are collected here from US7728003B2, “5-oxo-5,8-dihydro-pyrido-pyrimidines as inhibitors of c-fms kinase” (Janssen Pharmaceutica N.V., priority 2005, dated 2010).

The target in this experiment is c-fms (Homo sapiens, UniProt P07333). Description: c-fms autophosphorylation, fluorescence polarization competition immunoassay. The format is biochemical. The following applies: 10 nM c-fms, 1 mM ATP; for inhibition at 0.1 µM: test concentration 0.1 μM, read-out: c-fms Autophosphorylation Percent Inhibition, % @ 0.1 μM; for inhibition at 1 µM: test concentration 1 μM, read-out: c-fms Autophosphorylation Percent Inhibition, % @ 1 μM. As to the method:
The assay buffer used was 100 mM 4-(2-hydroxyethyl)piperazine 1-ethanesulfonic acid (HEPES), pH 7.5, 1 mM 1,4-dithio-DL-threitol (DTT), 0.01% (v/v) Tween-20. Compounds were diluted in assay buffer containing 4% dimethylsulfoxide (DMSO) just prior to the assay. To each well, 5 μL of compound were added followed by the addition of 3 μL of a mix containing 33 nM c-fms and 16.7 mM MgCl2 (Sigma) in assay buffer. The kinase reaction was initiated by adding 2 μL of 5 mM ATP (Sigma) in assay buffer. The final concentrations in the assay were 10 nM c-fms, 1 mM ATP, 5 mM MgCl2, 2% DMSO. Control reactions were ran in each plate: in positive and negative control wells, assay buffer (made 4% in DMSO) was substituted for the compound; in addition, positive control wells received 1.2 μL of 50 mM ethylenediaminetetraaceticacid (EDTA).
The plates were incubated at room temperature for 45 min. At the end of the incubation, the reaction was quenched with 1.2 μL of 50 mM EDTA (EDTA was not added to the positive control wells at this point; see above). Following a 5-min incubation, each well received 10 μL of a 1:1:3 mixture of anti-phosphotyrosine antibody, 10X, PTK green tracer, 10X (vortexed), FP dilution buffer, respectively (all from PanVera, cat. # P2837). The plate was covered, incubated for 30 min at room temperature and the fluorescence polarization was read on the Analyst. The instrument settings were: 485 nm excitation filter; 530 nm emission filter; Z height: middle of well; G factor: 0.93.
The percent inhibition is shown in Table 1 at the indicated test concentration. The IC50 shown in Table 2 are averages of three independent measurements.

Chain of c-fms (P07333 20-972): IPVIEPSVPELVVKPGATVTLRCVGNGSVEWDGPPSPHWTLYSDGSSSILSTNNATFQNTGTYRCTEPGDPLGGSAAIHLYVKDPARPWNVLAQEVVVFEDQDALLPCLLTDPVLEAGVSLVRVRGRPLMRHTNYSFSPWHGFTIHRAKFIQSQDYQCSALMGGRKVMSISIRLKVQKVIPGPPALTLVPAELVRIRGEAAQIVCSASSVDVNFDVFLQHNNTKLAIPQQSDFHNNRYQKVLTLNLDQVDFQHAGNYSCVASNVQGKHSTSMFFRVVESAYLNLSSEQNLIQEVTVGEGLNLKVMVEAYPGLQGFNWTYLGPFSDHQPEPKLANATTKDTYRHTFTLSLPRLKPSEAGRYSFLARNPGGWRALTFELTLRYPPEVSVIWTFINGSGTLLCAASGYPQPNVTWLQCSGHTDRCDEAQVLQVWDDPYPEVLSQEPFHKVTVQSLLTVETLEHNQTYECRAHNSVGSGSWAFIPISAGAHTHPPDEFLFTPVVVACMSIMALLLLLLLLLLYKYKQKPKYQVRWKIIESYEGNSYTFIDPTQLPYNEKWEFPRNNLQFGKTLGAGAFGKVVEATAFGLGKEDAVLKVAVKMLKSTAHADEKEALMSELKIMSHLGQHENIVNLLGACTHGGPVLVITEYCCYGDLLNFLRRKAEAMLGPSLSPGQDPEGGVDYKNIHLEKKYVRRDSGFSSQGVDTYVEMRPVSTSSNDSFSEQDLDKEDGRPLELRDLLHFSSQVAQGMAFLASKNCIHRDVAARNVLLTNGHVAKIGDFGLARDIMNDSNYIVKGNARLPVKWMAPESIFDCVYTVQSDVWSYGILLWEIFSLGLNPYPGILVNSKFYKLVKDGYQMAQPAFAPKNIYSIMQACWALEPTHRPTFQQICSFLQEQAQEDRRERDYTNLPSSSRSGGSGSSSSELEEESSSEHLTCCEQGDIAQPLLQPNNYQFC

With `CNC(=O)c1cn(C2CCCCC2)c2nc(NCCCN3CCOCC3)ncc2c1=O` [Cpd 55, 8-Cyclohexyl-2-(3-morpholin-4-yl-propylamino)-5-oxo-5,8-dihydro-pyrido[2,3-d]pyrimidine-6-carboxylic acid methylamide], the inhibition at 0.1 µM came to 13% and the inhibition at 1 µM turned out to be 23%.

As for `CNC(=O)c1cn(-c2ccc3c(c2)CCC3)c2nc(NCCN3CCOCC3)ncc2c1=O` [Cpd 18, 8-Indan-5-yl-2-(2-morpholin-4-yl-ethylamino)-5-oxo-5,8-dihydro-pyrido[2,3-d]pyrimidine-6-carboxylic acid methylamide], the inhibition at 0.1 µM was 12% and the inhibition at 1 µM worked out at 35%.

`CONC(=O)c1cn(C2CCCCC2)c2nc(NCCc3ccc(OC)cc3)ncc2c1=O` [Cpd 49, 8-Cyclohexyl-2-[2-(4-methoxy-phenyl)-ethylamino]-5-oxo-5,8-dihydro-pyrido[2,3-d]pyrimidine-6-carboxylic acid methoxy-amide]: the inhibition at 0.1 µM worked out at 38% and the inhibition at 1 µM came to 68%.

In the case of `CNC(=O)c1cn(C2CCCCC2)c2nc(NCCOC)ncc2c1=O` [Cpd 57, 8-Cyclohexyl-2-(2-methoxy-ethylamino)-5-oxo-5,8-dihydro-pyrido[2,3-d]pyrimidine-6-carboxylic acid methylamide], the inhibition at 0.1 µM was found to be 16% and the inhibition at 1 µM came to 20%.

For the compound `CONC(=O)c1cn(C2CCCCC2)c2nc(NCCCn3ccnc3)ncc2c1=O` [Cpd 41, 8-Cyclohexyl-2-(3-imidazol-1-yl-propylamino)-5-oxo-5,8-dihydro-pyrido[2,3-d]pyrimidine-6-carboxylic acid methoxy-amide], the inhibition at 0.1 µM was 22% and the inhibition at 1 µM came out at 45%.

Regarding `CN1CCN(CCCNc2ncc3c(=O)c(C(N)=O)cn(C4CCCCC4)c3n2)CC1` [Cpd 33, 8-Cyclohexyl-2-[3-(4-methyl-piperazin-1-yl)-propylamino]-5-oxo-5,8-dihydro-pyrido[2,3-d]pyrimidine-6-carboxylic acid amide], the inhibition at 0.1 µM is 31% and the inhibition at 1 µM worked out at 70%.

Regarding `CNC(=O)c1cn(-c2ccc3c(c2)CCC3)c2nc(NCCc3ccc(OC)cc3)ncc2c1=O` [Cpd 17, 8-Indan-5-yl-2-[2-(4-methoxy-phenyl)-ethylamino]-5-oxo-5,8-dihydro-pyrido[2,3-d]pyrimidine-6-carboxylic acid methylamide], the inhibition at 0.1 µM was 15% and the inhibition at 1 µM was 36%.

In the case of `CNC(=O)c1cn(-c2ccc3c(c2)CCC3)c2nc(NCCCN(C)C)ncc2c1=O` [Cpd 12, 2-(3-Dimethylamino-propylamino)-8-indan-5-yl-5-oxo-5,8-dihydro-pyrido[2,3-d]pyrimidine-6-carboxylic acid methylamide], the inhibition at 0.1 µM was found to be 2% and the inhibition at 1 µM came to 13%.

With `CONC(=O)c1cn(C2CCCCC2)c2nc(NCc3cc(OC)cc(OC)c3)ncc2c1=O` [Cpd 52, 8-Cyclohexyl-2-(3,5-dimethoxy-benzylamino)-5-oxo-5,8-dihydro-pyrido[2,3-d]pyrimidine-6-carboxylic acid methoxy-amide], the inhibition at 0.1 µM amounted to 23% and the inhibition at 1 µM was 53%.

In the case of `NC(=O)c1cn(-c2ccc3c(c2)CCC3)c2nc(NCCCN3CCCC3=O)ncc2c1=O` [Cpd 8, 8-Indan-5-yl-5-oxo-2-[3-(2-oxo-pyrrolidin-1-yl)-propylamino]-5,8-dihydro-pyrido[2,3-d]pyrimidine-6-carboxylic acid amide], the inhibition at 0.1 µM stood at 15% and the inhibition at 1 µM was 46%.

As for `CNC(=O)c1cn(-c2ccc3c(c2)CCC3)c2nc(NCCCN3CCCC3=O)ncc2c1=O` [Cpd 14, 8-Indan-5-yl-5-oxo-2-[3-(2-oxo-pyrrolidin-1-yl)-propylamino]-5,8-dihydro-pyrido[2,3-d]pyrimidine-6-carboxylic acid methylamide], the inhibition at 0.1 µM came out at 5% and the inhibition at 1 µM stood at 24%.
